Measurements taken from patent US7838463B2, “Safeners based on acrylic-aliphatic carboxylic acid derivatives” (Bayer CropScience AG, priority 2003, dated 2010).

How the values were obtained:
Type in all cases: in vivo
Amaranthus retroflexus [1] = assay: Post-emergence application of herbicide H2 (foramsulfuron) and safener by the tank mix method: herbicidal action; details: four weeks
Source text: (§1) Seeds of various crop plants and weed species were sown in sandy loam soil in round plastic pots of a diameter of 13 cm and covered with a layer of sandy loam of a thickness of about 1 cm. The pots were placed in a greenhouse under favorable growth conditions for a period of about two to three weeks, allowing the plants to reach a growth stage of 2 to 4 leaves. The herbicides in the form of liquid (for example emulsion concentrates) or dry (for example water-dispersible powders) formulations were mixed with a standard additive (based on rapeseed oil methyl ester), diluted with deionized water to the required concentrations and applied to the green parts of the plants and the uncovered part of the soil surface with a spray bar using a water application rate of 300 liters per hectare. In the experiment shown below, safener and the herbicide foramsulfuron were in each case used as 20 percent strength water-dispersible powder (results see table 1.2.1). The pots were placed in a greenhouse under favorable growth conditions. Visual scoring of the herbicidal action was carried out four weeks after the herbicide application. Evaluation was carried out on a percentage basis by comparison with untreated control plants (0%=no noticeable effect compared with the untreated plant, 100%=treated plant dies).

Setaria viridis [2] = assay: as above; details: four weeks
Source text: as §1

[3] = tested on: Zea mays (corn), cv. 'Lorenzo'; assay: Post-emergence application of herbicide H2 (foramsulfuron) and safener by the tank mix method: crop damage; details: for Safener action as % damage reduction in crop plants: ZEAMA, versus herbicide alone
Source text: as §1

[4] = tested on: Glycine max (soybean), cv. 'Lambert'; assay: Pre-emergence application of herbicide H1 (isoxaflutole) after seed dressing with safener; details: untreated seed (no safener), herbicide H1 (isoxaflutole) 100 g a.i./ha pre-emergence; four weeks
Procedure: (§2) The number of crop plant seeds required for each application rate of safener was calculated. Sufficient seeds were weighed-out into glass bottles having a screw-on lid. The volume of the glass bottles was approximately twice that of the seeds weighed out.
(§3) The safeners were formulated as 20 percent strength water-dispersible powders. These formulations were weighed out to give the required application rates (g of a.i./kg of seed). The samples were added to the seed in the glass containers, and sufficient water to form a suitable seed dressing was then added. The glass bottles were closed and then mounted in an overhead shaker (which turns the bottles at moderate speed for a period of up to one hour) so that the seeds were uniformly covered with the seed dressing. The bottles were opened and the seed was ready for use in pre-emergence or post-emergence experiments, as described below.
(§4) The seeds which had been treated with safeners and untreated seeds as controls were sown in sandy loam soil in round plastic pots of a diameter of 13 cm and covered with a layer of sandy loam of a thickness of about 1 cm. The herbicides in the form of liquid (for example emulsion concentrates) or dry (for example water-dispersible powders) formulations were diluted with deionized water to the required concentrations and applied to the surface of the soil with a spray bar using a water application rate of 300 liters per hectare. In the two experiments shown below (results see tables 2.2.1 and 2.2.2), the herbicide isoxaflutole was used as an aqueous suspension concentrate.
(§5) The pots were placed in a greenhouse under favorable growth conditions. Visual scoring of the herbicidal action was carried out four weeks after the herbicide application. Evaluation was carried out on a percentage basis by comparison with untreated control plants (0%=no noticeable effect compared with the untreated plant, 100%=treated plant dies).

[5] = tested on: Zea mays (corn), cv. 'Lorenzo'; assay: as above; details: untreated seed (no safener), herbicide H1 (isoxaflutole) 100 g a.i./ha pre-emergence; four weeks
Procedure: as §2, §3, §4, §5

[6] = tested on: Zea mays (corn), cv. 'Lorenzo'; assay: Pre-emergence application of herbicide H1 (isoxaflutole) and safener by the tank mix method: crop damage; details: herbicide H1 (isoxaflutole) 100 g a.i./ha alone, no safener, pre-emergence; four weeks
Procedure: (§6) Seeds of various crop plants and weed species were sown in sandy loam soil in round plastic pots of a diameter of 13 cm and covered with a layer of sandy loam of a thickness of about 1 cm. Herbicides and safeners in the form of liquid (for example emulsion concentrates) or dry (for example water-dispersible powders) formulations were diluted with deionized water to the required concentrations and applied to the surface of the soil with a spray bar using a water application rate of 300 liters per hectare. In the experiment shown below, the safeners were used as 20 percent strength water-dispersible powders and the herbicide isoxaflutole was used as an aqueous suspension concentrate (see table 1.1.1). The pots were placed in a greenhouse under favorable growth conditions. Visual scoring of the herbicidal action was carried out four weeks after the herbicide application. Evaluation was carried out on a percentage basis by comparison with untreated control plants (0%=no noticeable effect compared with the untreated plant, 100%=treated plant dies).

Chenopodium album [7] = assay: Pre-emergence application of herbicide H1 (isoxaflutole) and safener by the tank mix method: herbicidal action; details: herbicide H1 (isoxaflutole) 100 g a.i./ha alone, no safener, pre-emergence; four weeks
Procedure: as §6

Setaria viridis [8] = assay: as above; details: herbicide H1 (isoxaflutole) 100 g a.i./ha alone, no safener, pre-emergence; four weeks
Procedure: as §6

[9] = tested on: Zea mays (corn), cv. 'Lorenzo'; assay: Post-emergence application of herbicide H2 (foramsulfuron) after seed dressing with safener; details: untreated seed (no safener), herbicide H2 (foramsulfuron) 40 g a.i./ha post-emergence; four weeks
Procedure: The number of crop plant seeds required for each application rate of safener was calculated. Sufficient seeds were weighed-out into glass bottles having a screw-on lid. The volume of the glass bottles was approximately twice that of the seeds weighed out. The safeners were formulated as 20 percent strength water-dispersible powders. These formulations were weighed out to give the required application rates (g of a.i./kg of seed). The samples were added to the seed in the glass containers, and sufficient water to form a suitable seed dressing was then added. The glass bottles were closed and then mounted in an overhead shaker (which turns the bottles at moderate speed for a period of up to one hour) so that the seeds were uniformly covered with the seed dressing. The bottles were opened and the seed was ready for use in pre-emergence or post-emergence experiments, as described below. The seeds treated with safener and untreated seeds were sown in sandy loam soil in round plastic pots of a diameter of 13 cm and covered with a layer of sandy loam of a thickness of about 1 cm. The pots were placed in a greenhouse under favorable growth conditions for a period of about two to three weeks, allowing the plants to reach a growth stage of 2 to 4 leaves. The herbicides in the form of liquid (for example emulsion concentrates) or dry (for example water-dispersible powders) formulations were mixed with a standard additive (based on rapeseed oil methyl ester), diluted with deionized water to the required concentrations and applied to the green parts of the plants and the uncovered part of the soil surface with a spray bar using a water application rate of 300 liters per hectare. In the experiment shown below, the herbicide foramsulfuron was used as 20 percent strength water-dispersible powder (results see table 2.3.1). The pots were placed in a greenhouse under favorable growth conditions. Visual scoring of the herbicidal action was carried out four weeks after the herbicide application. Evaluation was carried out on a percentage basis by comparison with untreated control plants (0%=no noticeable effect compared with the untreated plant, 100%=treated plant dies).

Amaranthus retroflexus [10] = assay: Post-emergence application of herbicide H3 (glufosinate-ammonium) and safener by the tank mix method: herbicidal action; details: herbicide H3 (glufosinate-ammonium) 250 g a.i./ha alone, no safener, post-emergence; four weeks
Source text: (§7) Seeds of various crop plants and weed species were sown in sandy loam soil in round plastic pots of a diameter of 13 cm and covered with a layer of sandy loam of a thickness of about 1 cm. The pots were placed in a greenhouse under favorable growth conditions for a duration of about two to three weeks, allowing the plants to reach a growth stage of 2 to 4 leaves. The herbicides, in the form of liquid (for example emulsion concentrates, aqueous solutions) or dry (for example water-dispersible powders) formulations, were diluted with deionized water to the required concentrations and applied to the green parts of the plants and the uncovered part of the surface of the soil with a spray bar using a water application rate of 300 liters per hectare. In the experiment shown below, the safeners were used as 20 percent strength water-dispersible powders and the herbicide glufosinate-ammonium as a commercial 20 percent strength aqueous surfactant-containing solution (results see table 1.2.2).
(§8) The pots were placed in a greenhouse under favorable growth conditions. Visual scoring of the herbicidal action was carried out four weeks after the herbicidal application. Evaluation was carried out on a percentage basis by comparison with untreated control plants (0%=no noticeable effect compared with the untreated plant, 100%=treated plant dies).

Chenopodium album [11] = assay: as above; details: herbicide H3 (glufosinate-ammonium) 250 g a.i./ha alone, no safener, post-emergence; four weeks
Source text: as §7, §8

[12] = tested on: Zea mays (corn), cv. 'Lorenzo'; assay: Post-emergence application of herbicide H3 (glufosinate-ammonium) and safener by the tank mix method: crop damage; details: herbicide H3 (glufosinate-ammonium) 250 g a.i./ha alone, no safener, post-emergence; four weeks
Source text: as §7, §8

[13] = safener 250 g a.i./ha + herbicide H2 (foramsulfuron) 40 g a.i./ha, post-emergence tank mix
[14] = safener 250 g a.i./ha + herbicide H2 (foramsulfuron) 40 g a.i./ha, post-emergence tank mix, visual scoring four weeks after application
[15] = herbicide H2 (foramsulfuron) 40 g a.i./ha alone, no safener, post-emergence

Row | SMILES | Herbicidal action as % damage in AMARE (Amaranthus retroflexus [1]; [13]) [%] | Herbicidal action as % damage in SETVI (Setaria viridis [2]; [13]) [%] | Safener action as % damage reduction in crop plants [3, 13] [%] | % damage in ZEAMA [3, 14] [%] | also measured
1 | O=C(O)C=Cc1ccccc1F [Comp. 146, 2-fluorocinnamic acid] | 98 | 92 | 72 | 10 | –
2 | COc1ccc(C=CC(=O)O)cc1 [Comp. 154, 4-methoxycinnamic acid] | 96 | 95 | 67 | 12 | –
3 | CCOC(=O)C=Cc1cccc(O)c1 [Comp. 191, ethyl 3-hydroxycinnamate] | 99 | 96 | 56 | 16 | –
4 | CS(=O)(=O)c1cc(C(F)(F)F)ccc1C(=O)c1cnoc1C1CC1 [Herbicide H1, isoxaflutole, reference compound] | – | – | – | – | % damage in GLXMA [4]: 83%; % damage in ZEAMA [5]: 25%; % damage in ZEAMA [6]: 27%; Herbicidal action as % damage in CHEAL (Chenopodium album [7]): 92%; Herbicidal action as % damage in SETVI (Setaria viridis [8]): 95%
5 | COc1cc(OC)nc(NC(=O)NS(=O)(=O)c2cc(NC=O)ccc2C(=O)N(C)C)n1 [Herbicide H2, foramsulfuron, reference compound] | – | – | – | – | Herbicidal action as % damage in AMARE (Amaranthus retroflexus [1]; [15]): 94%; Herbicidal action as % damage in SETVI (Setaria viridis [2]; [15]): 95%; % damage in ZEAMA ([3]; herbicide H2 (foramsulfuron) 40 g a.i./ha alone, no safener, post-emergence, four weeks): 36%; % damage in ZEAMA [9]: 32%
6 | CP(=O)(O)CCC(N)C(=O)O (stereo not drawn) [Herbicide H3, glufosinate-ammonium, reference compound] | – | – | – | – | Herbicidal action as % damage in AMARE (Amaranthus retroflexus [10]): 90%; Herbicidal action as % damage in CHEAL (Chenopodium album [11]): 92%; % damage in ZEAMA [12]: 62%
